In the supplement of paper PMC12076712:

Tests used:
Experiment in all cases: pIC50, kinobeads binding competition
Conditions in all cases: cell material: Jurkat lysate
UniProt O96017 = molecular target: UniProt O96017
RPS6KA4 = RPS6KA4 (UniProt O75676)
MELK = MELK (UniProt Q14680)
TEC = molecular target: T1, TEC (UniProt P42680)
T1 sequence (whole entry): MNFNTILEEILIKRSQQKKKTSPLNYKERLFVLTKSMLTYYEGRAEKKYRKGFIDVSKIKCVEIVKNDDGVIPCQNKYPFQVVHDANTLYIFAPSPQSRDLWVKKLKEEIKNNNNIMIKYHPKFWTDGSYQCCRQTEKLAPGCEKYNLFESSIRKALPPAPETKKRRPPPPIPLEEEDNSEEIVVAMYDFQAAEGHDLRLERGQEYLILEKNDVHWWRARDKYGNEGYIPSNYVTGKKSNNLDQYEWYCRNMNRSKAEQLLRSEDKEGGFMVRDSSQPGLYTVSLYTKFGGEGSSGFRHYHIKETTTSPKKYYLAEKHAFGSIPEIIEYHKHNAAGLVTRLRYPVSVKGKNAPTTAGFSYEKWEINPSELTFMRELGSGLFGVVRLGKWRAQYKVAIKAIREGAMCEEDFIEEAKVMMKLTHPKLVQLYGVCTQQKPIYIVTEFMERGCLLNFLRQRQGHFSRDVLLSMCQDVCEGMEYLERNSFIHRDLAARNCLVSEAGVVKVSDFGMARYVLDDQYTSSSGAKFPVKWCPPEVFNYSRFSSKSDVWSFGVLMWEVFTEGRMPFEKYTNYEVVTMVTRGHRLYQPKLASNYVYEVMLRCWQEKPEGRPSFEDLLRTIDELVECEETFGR

UniProt Q99759 = molecular target: T2, UniProt Q99759
T2 sequence (whole entry): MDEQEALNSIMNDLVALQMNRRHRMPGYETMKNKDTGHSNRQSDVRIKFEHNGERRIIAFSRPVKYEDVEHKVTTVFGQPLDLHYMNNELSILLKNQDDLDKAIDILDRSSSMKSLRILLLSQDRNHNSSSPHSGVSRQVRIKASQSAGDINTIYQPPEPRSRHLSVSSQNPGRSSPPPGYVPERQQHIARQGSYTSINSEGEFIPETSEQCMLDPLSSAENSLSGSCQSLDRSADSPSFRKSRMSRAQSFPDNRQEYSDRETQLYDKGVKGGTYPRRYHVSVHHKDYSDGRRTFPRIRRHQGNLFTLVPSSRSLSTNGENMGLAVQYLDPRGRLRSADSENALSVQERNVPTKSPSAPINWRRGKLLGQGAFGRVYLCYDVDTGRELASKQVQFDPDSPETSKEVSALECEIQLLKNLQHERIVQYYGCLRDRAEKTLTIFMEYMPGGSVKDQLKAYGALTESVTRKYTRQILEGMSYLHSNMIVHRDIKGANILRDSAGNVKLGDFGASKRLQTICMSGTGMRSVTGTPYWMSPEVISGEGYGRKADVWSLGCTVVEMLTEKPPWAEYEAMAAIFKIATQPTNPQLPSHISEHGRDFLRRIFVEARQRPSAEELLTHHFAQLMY

UniProt Q8NI60 = molecular target: UniProt Q8NI60
UniProt Q8NI60, sequence (Q8NI60 whole entry, looked up): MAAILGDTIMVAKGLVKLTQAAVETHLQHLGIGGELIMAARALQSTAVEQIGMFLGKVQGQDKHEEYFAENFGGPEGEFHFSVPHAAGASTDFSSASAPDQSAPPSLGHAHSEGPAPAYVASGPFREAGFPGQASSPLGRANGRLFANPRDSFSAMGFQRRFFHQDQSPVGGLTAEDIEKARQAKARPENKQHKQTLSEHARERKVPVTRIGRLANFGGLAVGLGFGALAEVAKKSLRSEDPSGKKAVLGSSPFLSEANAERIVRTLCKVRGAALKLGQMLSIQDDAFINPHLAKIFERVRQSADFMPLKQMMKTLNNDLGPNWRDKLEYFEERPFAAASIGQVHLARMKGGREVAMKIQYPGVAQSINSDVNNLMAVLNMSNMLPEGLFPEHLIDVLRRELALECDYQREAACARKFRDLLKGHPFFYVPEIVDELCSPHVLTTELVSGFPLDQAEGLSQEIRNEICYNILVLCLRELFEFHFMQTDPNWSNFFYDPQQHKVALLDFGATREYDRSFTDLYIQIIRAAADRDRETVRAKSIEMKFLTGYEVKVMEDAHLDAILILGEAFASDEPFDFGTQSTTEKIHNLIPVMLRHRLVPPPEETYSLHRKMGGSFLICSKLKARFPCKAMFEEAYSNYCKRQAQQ

UniProt Q9NSY1 = molecular target: UniProt Q9NSY1
UniProt Q9NSY1, sequence (Q9NSY1 whole entry, looked up): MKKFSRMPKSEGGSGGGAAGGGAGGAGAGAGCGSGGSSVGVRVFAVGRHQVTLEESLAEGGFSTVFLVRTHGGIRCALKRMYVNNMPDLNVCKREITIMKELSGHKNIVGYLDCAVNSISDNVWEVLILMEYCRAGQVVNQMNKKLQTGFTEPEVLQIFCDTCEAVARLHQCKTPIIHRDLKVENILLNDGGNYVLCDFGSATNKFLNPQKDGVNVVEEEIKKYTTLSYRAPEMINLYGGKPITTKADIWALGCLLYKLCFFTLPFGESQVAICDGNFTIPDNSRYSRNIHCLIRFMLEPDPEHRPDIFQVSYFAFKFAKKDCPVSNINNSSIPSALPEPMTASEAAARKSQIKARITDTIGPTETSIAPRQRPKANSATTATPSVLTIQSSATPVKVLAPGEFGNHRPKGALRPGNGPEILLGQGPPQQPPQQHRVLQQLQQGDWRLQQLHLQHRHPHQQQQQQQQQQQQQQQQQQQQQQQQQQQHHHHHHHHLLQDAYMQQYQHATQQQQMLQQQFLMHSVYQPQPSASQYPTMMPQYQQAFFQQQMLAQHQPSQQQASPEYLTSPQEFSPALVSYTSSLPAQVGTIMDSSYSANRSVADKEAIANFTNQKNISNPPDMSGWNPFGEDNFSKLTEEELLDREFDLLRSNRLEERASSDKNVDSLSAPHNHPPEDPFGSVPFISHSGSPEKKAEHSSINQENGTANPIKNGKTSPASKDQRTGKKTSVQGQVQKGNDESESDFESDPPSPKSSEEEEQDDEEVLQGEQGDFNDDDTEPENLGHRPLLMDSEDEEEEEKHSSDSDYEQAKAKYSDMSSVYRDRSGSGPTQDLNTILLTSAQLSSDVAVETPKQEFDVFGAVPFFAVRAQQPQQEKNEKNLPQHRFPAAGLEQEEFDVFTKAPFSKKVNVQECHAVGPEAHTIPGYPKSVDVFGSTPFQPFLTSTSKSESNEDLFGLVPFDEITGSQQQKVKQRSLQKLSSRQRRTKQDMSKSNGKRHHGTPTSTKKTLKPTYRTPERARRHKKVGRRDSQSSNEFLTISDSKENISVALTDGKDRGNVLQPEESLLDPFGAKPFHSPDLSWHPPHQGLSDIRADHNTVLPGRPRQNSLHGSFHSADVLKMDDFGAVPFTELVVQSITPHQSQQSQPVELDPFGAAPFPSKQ

MAP4K5 = MAP4K5 (UniProt Q9Y4K4)
MAP4K5, sequence (Q9Y4K4 whole entry, looked up): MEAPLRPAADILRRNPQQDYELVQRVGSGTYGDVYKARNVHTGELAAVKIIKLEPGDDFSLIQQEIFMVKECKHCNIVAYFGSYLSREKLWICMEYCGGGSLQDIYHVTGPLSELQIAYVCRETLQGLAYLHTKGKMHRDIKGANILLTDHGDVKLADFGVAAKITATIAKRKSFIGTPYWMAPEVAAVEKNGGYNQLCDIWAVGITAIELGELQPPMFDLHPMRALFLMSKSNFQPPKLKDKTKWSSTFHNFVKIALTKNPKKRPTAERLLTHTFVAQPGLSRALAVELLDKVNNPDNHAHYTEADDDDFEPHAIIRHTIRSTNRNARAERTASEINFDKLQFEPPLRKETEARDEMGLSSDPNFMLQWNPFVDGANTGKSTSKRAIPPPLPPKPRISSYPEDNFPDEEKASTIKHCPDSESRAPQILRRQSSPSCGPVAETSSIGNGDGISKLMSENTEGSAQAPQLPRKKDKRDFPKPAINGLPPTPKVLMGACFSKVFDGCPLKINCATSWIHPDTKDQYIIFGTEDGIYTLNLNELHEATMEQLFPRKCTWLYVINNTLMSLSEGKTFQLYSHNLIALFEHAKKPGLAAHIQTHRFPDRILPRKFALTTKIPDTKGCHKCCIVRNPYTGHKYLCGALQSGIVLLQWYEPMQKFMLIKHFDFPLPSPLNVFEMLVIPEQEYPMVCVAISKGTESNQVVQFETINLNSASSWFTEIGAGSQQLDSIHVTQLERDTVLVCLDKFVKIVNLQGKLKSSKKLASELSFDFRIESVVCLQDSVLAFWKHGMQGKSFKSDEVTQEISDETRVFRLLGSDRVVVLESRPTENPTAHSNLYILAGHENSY

BMPR2 = molecular target: T3, BMPR2 (UniProt Q13873)
T3 sequence (whole entry): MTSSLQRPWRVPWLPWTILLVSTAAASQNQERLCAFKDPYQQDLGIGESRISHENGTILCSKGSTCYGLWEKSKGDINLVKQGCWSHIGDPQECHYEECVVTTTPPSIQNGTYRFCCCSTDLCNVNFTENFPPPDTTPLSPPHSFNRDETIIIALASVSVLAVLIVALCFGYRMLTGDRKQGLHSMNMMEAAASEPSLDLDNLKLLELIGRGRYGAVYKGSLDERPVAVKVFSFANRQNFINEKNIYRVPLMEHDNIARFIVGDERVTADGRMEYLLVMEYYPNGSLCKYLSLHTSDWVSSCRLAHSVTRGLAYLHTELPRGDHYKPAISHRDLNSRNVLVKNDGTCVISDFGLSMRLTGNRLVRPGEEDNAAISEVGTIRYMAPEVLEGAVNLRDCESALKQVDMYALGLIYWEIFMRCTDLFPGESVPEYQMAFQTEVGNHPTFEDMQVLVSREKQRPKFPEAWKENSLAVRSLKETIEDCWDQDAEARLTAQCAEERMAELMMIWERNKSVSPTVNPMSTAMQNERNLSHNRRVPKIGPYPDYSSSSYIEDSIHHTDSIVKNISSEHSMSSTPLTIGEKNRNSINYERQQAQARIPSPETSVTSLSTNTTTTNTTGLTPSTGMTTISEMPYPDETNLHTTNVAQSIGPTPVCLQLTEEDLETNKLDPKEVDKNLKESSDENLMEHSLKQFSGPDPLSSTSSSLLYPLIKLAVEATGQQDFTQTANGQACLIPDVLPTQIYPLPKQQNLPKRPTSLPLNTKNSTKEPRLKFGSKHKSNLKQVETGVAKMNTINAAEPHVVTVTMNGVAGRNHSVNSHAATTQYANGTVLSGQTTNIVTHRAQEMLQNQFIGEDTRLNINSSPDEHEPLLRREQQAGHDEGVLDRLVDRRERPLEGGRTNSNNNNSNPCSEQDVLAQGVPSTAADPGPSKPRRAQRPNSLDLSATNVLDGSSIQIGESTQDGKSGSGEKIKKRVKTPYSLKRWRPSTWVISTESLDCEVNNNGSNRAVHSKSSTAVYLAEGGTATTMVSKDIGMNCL

MELK, sequence (Q14680 whole entry, looked up): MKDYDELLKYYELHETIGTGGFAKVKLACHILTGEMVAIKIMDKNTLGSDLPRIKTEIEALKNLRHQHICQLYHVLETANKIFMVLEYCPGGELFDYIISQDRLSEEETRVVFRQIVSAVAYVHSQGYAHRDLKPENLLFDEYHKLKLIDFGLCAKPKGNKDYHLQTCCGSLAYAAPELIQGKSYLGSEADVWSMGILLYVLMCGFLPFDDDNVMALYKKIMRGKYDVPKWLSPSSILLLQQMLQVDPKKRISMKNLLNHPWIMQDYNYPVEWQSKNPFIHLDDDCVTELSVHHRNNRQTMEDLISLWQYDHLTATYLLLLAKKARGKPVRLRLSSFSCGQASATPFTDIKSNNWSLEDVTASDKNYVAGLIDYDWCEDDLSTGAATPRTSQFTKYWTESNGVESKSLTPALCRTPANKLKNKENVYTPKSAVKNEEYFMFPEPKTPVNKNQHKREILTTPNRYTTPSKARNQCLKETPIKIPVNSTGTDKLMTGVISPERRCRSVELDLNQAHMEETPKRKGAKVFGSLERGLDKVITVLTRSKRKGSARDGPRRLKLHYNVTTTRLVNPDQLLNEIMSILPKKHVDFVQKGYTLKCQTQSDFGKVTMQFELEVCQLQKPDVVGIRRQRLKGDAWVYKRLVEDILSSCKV
UniProt O96017, sequence (O96017 whole entry): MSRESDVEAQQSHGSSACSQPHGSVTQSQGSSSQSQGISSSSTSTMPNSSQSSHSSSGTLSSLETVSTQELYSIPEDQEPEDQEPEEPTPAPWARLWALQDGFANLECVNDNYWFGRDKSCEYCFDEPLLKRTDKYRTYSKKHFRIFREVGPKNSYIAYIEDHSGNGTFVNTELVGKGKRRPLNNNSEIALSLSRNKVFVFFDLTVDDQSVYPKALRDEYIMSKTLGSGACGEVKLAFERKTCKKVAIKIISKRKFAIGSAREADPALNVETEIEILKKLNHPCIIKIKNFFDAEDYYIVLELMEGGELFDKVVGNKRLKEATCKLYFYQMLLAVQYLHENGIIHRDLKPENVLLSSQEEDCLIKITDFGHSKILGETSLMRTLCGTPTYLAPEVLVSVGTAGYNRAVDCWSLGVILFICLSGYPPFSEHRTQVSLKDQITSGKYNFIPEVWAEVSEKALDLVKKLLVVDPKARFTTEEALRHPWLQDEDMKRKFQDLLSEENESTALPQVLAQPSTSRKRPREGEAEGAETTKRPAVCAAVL
RPS6KA4, sequence (O75676 whole entry, looked up): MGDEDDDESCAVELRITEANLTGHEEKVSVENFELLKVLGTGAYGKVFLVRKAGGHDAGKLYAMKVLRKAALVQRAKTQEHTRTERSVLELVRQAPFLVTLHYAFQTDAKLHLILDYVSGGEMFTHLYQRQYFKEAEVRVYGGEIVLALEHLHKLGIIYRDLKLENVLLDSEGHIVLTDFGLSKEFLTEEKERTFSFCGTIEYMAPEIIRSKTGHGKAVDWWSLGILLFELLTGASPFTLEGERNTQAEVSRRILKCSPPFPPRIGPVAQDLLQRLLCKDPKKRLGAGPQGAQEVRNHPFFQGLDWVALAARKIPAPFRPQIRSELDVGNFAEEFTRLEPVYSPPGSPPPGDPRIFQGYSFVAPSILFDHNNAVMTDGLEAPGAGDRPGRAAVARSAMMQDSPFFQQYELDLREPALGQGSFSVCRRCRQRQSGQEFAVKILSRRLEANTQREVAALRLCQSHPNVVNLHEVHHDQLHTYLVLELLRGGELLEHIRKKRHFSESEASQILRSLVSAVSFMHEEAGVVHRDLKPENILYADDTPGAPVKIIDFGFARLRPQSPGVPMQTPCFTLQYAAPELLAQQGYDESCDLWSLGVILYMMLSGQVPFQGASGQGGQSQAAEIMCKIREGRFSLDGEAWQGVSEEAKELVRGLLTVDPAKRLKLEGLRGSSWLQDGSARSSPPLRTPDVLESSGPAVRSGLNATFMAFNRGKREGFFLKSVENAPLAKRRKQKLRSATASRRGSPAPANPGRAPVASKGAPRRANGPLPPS

pIC50 (UniProt O96017): < 4.52 | pIC50 (RPS6KA4): < 4.52 | pIC50 (MELK): < 4.52 | pIC50 (TEC): < 4.52 | pIC50 (UniProt Q99759): < 4.52 | pIC50 (UniProt Q8NI60): < 4.52 | pIC50 (UniProt Q9NSY1): < 4.52 | pIC50 (MAP4K5): < 4.52 | pIC50 (BMPR2): < 4.52
SMILES: CCc1cnn2c(NCc3ccc[n+]([O-])c3)cc(N3CCCC[C@H]3CCO)nc12 [dinaciclib]
